Assay results published in PubChem BioAssay (NCI).
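A five-concentration, 48-hour dose response in 96-well plates underlies each endpoint, interpolated linearly between surrounding concentrations. GI50 = concentration required for 50% inhibition of growth. TGI denotes the concentration required for complete inhibition of growth.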

Legend:
Test in all cases: DTP human tumour cell line panel, 48 h
[1] = tested on: ACHN renal
[2] = tested on: KM12 colon
[3] = tested on: M14 melanoma
[4] = tested on: MCF7 breast
[5] = tested on: NCI-H23 lung
[6] = tested on: NCI/ADR-RES ovarian
[7] = tested on: OVCAR-3 ovarian
[8] = tested on: SF-539 CNS
[9] = tested on: SNB-75 CNS
[10] = tested on: TK-10 renal

Row | SMILES | GI50 [1] [µM] | TGI [1] [µM] | GI50 [2] [µM] | TGI [2] [µM] | GI50 [3] [µM] | TGI [3] [µM] | GI50 [4] [µM] | TGI [4] [µM] | GI50 [5] [µM] | TGI [5] [µM] | GI50 [6] [µM] | TGI [6] [µM] | GI50 [7] [µM] | TGI [7] [µM] | GI50 [8] [µM] | TGI [8] [µM] | GI50 [9] [µM] | TGI [9] [µM] | GI50 [10] [µM] | TGI [10] [µM]
1 | CN(C[C@@H]1COCCO1)S(=O)(=O)Nc1ccc2ccc3ncc(-c4cnn(C)c4)cc3c(=O)c2c1 | 2.82 | > 100 | 0.369 | > 100 | 3.89 | > 100 | 12.8 | > 100 | 1.77 | > 100 | 11.8 | > 100 | 11.8 | > 100 | 1.57 | 7.91 | 1.6 | > 27.4 | 2.64 | > 100
2 | Nc1c(C(=O)Nc2ccccc2F)sc2nc3c(cc12)C(=O)CCC3 | > 21.5 | > 100 | 0.547 | > 100 | 0.645 | > 100 | 0.499 | > 100 | 2.04 | > 100 | 0.509 | 5.09 | 0.576 | 3.9 | 0.817 | > 22.2 | 1.88 | > 57.8 | 4.3 | > 100
3 | CSc1ccc(/C=C/c2ccnc3ccccc23)cc1 |  | 29.5 |  | > 100 |  | 22.1 |  | 28.6 |  | 28.4 |  | 29.5 |  | 25.9 |  | 32.7 |  | 44.6 |  | 26.8
4 | Cn1c(=S)c2[nH]c(SCCN3CCCC3)nc2n(C)c1=O |  | > 100 |  | > 100 |  | > 100 |  | > 100 |  | > 100 |  | > 100 |  | > 100 |  | > 100 |  | > 100 |  | > 100
5 | N#Cc1ccc(C(c2ccc(C#N)cc2)n2cncn2)cc1 | > 5000 | > 5000 | > 5000 | > 5000 | > 5000 | > 5000 | > 5000 | > 5000 | > 5000 | > 5000 | > 5000 | > 5000 | > 5000 | > 5000 | 1250 | > 5000 | > 5000 | > 5000 | 1310 | > 5000
6 | CCN1C(=O)N(c2ccccc2)C2NN=c3s/c(=C4\C(=O)N(C(C)C)c5ccccc54)c(=O)n3C21 (stereo not drawn) | 1.5 | > 57.9 | 0.977 | > 100 | 0.979 | > 35.6 | 0.483 | > 100 | 1.47 | 28.2 | 0.702 | 3.84 | 0.886 | 3.1 | 0.736 | 2.24 | 0.253 | 4.79 | 4.84 | 49.5
7 | Nc1nnc(Cn2c(-c3ccccc3)nc3ccc(Br)cc3c2=O)s1 | 39 | > 100 | 25.1 | > 100 | 49 | > 100 | > 100 | > 100 | 40.8 | > 100 | 41.2 | > 100 | 40 | > 100 | 32.9 | > 100 | > 100 | > 100 | 32 | 83.9
8 | COc1ccc(Cn2cc3c(c2-c2cc(OC)c(OC)c(OC)c2)CCc2cnoc2-3)cc1[N+](=O)[O-] | 2.88 | > 100 | 0.583 | > 93.7 | 0.662 | > 20.4 | 0.454 | > 100 | 1.46 | > 30.3 | 0.364 |  | 0.441 | 3.09 | 1.12 | 13.8 | 0.849 |  | 3.57 | > 84.3
9 | CN(CCCl)c1ccc(/C=C/C2=[N+](C)c3ccccc3C2(C)C)cc1 | 2.19 | 10.6 | 0.355 | 1.55 | 1.03 | 14.8 | 0.516 | 10.6 | 0.434 | 11 | 65.8 | > 100 | 0.314 | 3.15 | 2.11 | 13.8 | 1.2 | 6.91 | 2.37 | 14.9
10 | CNC1C(O)C(OC2C(N)CC(N)C(OC3OC(C(C)O)C(O)C(O)C3N)C2O)OCC1(C)O (stereo not drawn) |  | > 100 |  | > 100 |  | > 100 |  | > 100 |  | > 100 |  | > 100 |  | > 100 |  | > 100 |  | > 100 |  | > 100
11 | COc1ccc(C(=O)/C=C/c2ccc(OCC(=O)N3CCN(c4ccccc4)CC3)cc2)cc1 |  | > 100 |  | > 100 |  | > 100 |  | > 100 |  | > 100 |  | > 100 |  | > 100 |  | 51.7 |  | 62.5 |  | 89.2
12 | O=C(NCCCCCCCCNC(=O)c1cccc2ccccc12)c1cccc2ccccc12 |  | 60.8 |  | > 100 |  | > 87 |  | > 100 |  | > 79.6 |  | > 100 |  | > 79.9 |  | 34 |  | 13.2 |  | 43.3
13 | Cc1cc(C)nc(SC2=C(Nc3cccc(Cl)c3C)C(=O)N(Cc3ccccc3)C2=O)n1 | > 160 | > 160 | > 160 | > 160 | > 160 | > 160 | > 160 | > 160 | > 160 | > 160 | > 160 | > 160 | > 160 | > 160 | > 160 | > 160 | > 160 | > 160 | > 160 | > 160
14 | CS(=O)(=O)CCNCc1ccc(-c2ccc3ncnc(Nc4ccc(OCc5ccccc5)c(Cl)c4)c3c2)o1 | 0.187 | > 25 | 6.41 | 17.8 | 4.82 | 10 | 5.06 | > 13.8 | 8.98 | > 25 | 5.9 | > 25 | 6.54 | > 25 | 4.26 | 9.2 | 4.94 | > 25 | 0.158 | > 14.1
15 | C[C@H]1C(Oc2ccc(O)cc2)OC2OC3(C)CCC4[C@H](C)CCC1C24OO3 (stereo partly drawn) | 3.97 | 19 | 11.4 | > 82.1 | 16.1 | 34.3 | 12.6 | 32.5 | 12 | 27.7 | 8.04 | 25.8 | 6.12 | 32.8 | 16.3 | 33 | 17.6 | 39.3 | 15.9 | 37.8
